From patent US8435978B2, “Substituted sulfonamide compounds” (Gruenenthal GmbH, priority 2006, dated 2013)
Where a name gives a salt, the structure may show the parent alone.

Experiments:
human B1R receptor = molecular target: T1, human B1R receptor (Homo sapiens, UniProt P46663); test: Functional study on the bradykinin receptor 1 (B1R), FLIPR Ca2+ assay, hB1R cells; type: cell-based; conditions: agonist Lys-Des-Arg9-bradykinin 0.5 nM, % inhibition compared with the maximum achievable inhibition; for inhibition at 10 µM: CHO-K1, test substance 10 μM, read-out: B1R Antagonism, human [10 μM] % Inhibition; for B1R Antagonism, human [10 μM] % Inhibition: test substance 10 μM, hB1R CHO K1 cells
T1 construct: host or cells: CHO K1 cells (Chinese hamster ovary), stably transfected
T1 sequence (P46663 1-353): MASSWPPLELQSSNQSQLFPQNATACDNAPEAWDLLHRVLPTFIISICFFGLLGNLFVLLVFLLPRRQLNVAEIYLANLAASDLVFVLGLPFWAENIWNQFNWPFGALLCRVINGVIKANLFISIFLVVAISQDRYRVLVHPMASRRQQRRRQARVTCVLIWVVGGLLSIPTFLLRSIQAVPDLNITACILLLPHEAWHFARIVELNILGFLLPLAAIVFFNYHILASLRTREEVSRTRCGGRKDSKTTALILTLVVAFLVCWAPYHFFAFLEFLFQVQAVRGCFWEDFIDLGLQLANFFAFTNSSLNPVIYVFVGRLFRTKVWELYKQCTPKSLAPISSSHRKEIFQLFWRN
How it was run: (§1)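 Readout: peak Fluo-4 Ca2+ fluorescence, FLIPR. Stable CHO K1 hB1R or rB1R cells; cpd 10 μM, 10 min preincubation, then agonist (hB1R: Lys-Des-Arg9-BK 0.5 nM; rB1R: Des-Arg9-BK 100 nM). Value = % inhibition relative to maximal achievable inhibition.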

B1R receptor of the rat = molecular target: T2, B1R receptor of the rat (Rattus norvegicus, UniProt P97583); test: Functional study on the bradykinin receptor 1 (B1R), FLIPR Ca2+ assay, rB1R cells; type: cell-based; conditions: agonist Des-Arg9-bradykinin 100 nM, % inhibition compared with the maximum achievable inhibition; for inhibition at 10 µM: CHO-K1, test substance 10 μM, read-out: B1R Antagonism, rat [10 μM] % Inhibition; for B1R Antagonism, rat [10 μM] % Inhibition: test substance 10 μM, rB1R CHO K1 cells
T2 construct: host or cells: CHO K1 cells (Chinese hamster ovary), stably transfected
T2 sequence (P97583 1-337): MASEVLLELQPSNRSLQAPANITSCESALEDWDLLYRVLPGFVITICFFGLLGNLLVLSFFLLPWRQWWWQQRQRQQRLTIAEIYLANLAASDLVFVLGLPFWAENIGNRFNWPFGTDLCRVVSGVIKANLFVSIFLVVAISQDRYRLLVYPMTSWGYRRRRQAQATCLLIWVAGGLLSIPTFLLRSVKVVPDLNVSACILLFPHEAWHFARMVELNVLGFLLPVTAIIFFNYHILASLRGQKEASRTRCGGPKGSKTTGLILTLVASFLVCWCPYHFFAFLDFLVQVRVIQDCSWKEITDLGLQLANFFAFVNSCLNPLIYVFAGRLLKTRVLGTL
How it was run: as §1

inhibition at 10 µM (human B1R receptor)	inhibition at 10 µM (B1R receptor of the rat)	B1R Antagonism, human [10 μM] % Inhibition (human B1R receptor)	B1R Antagonism, rat [10 μM] % Inhibition (B1R receptor of the rat)	Compound
87.4%	99.7%	–	–	COc1cc(C)c(S(=O)(=O)N2CCCC2COCC(=O)N(C)C(CN2CCCC2)c2ccccc2)c(C)c1 (stereo not drawn) [Example 450, 2-((1-(4-methoxy-2,6-dimethylphenylsulfonyl)pyrrolidin-2-yl)methoxy)-N-methyl-N-(1-phenyl-2-(pyrrolidin-1-yl)ethyl)acetamide]
102%	100%	–	–	O=C(COCC1CCCCN1S(=O)(=O)c1c(Cl)cccc1Cl)N1CCN(Cc2ccccc2F)CC1 (stereo not drawn) [Example 454, 2-((1-(2,6-dichlorophenylsulfonyl)piperidin-2-yl)methoxy)-1-(4-(2-fluorobenzyl)piperazin-1-yl)ethanone]
70.6%	57.9%	–	–	O=C(COCC1CCCCN1S(=O)(=O)c1ccc(Cl)c(Cl)c1)N1CCN(CCN2CCCCC2)CC1 (stereo not drawn) [Example 42, 2-((1-(3,4-dichlorophenylsulfonyl)piperidin-2-yl)methoxy)-1-(4-(2-(piperidin-1-yl)-ethyl)piperazin-1-yl)ethanone]
35.1%	97.6%	–	–	CCN(CCCNC(=O)COCC1CCCCN1S(=O)(=O)c1c(C)cc(OC)cc1C)c1ccccc1 (stereo not drawn) [Example 424, N-(3-(ethyl(phenyl)amino)propyl)-2-((1-(4-methoxy-2,6-dimethylphenylsulfonyl)piperidin-2-yl)methoxy)acetamide]
–	–	53.64%	82.89%	COc1ccc(S(=O)(=O)N2Cc3ccccc3CC2COCC(=O)N2CCC(CCN3CCCCC3)CC2)cc1 (stereo not drawn) [Example 69]
23.4%	96.8%	–	–	CN(C)c1ccc(CNC(=O)COCC2CCCN2S(=O)(=O)c2c(Cl)cc(Cl)cc2Cl)cc1 (stereo not drawn) [Example 575, N-(4-(dimethylamino)benzyl)-2-((1-(2,4,6-trichlorophenylsulfonyl)pyrrolidin-2-yl)methoxy)acetamide]
101%	100%	–	–	COc1cc(C)c(S(=O)(=O)N2CCCCC2COCC(=O)NCCCN2CCN(Cc3ccccc3)CC2)c(C)c1 (stereo not drawn) [Example 411, N-(3-(4-benzylpiperazin-1-yl)propyl)-2-((1-(4-methoxy-2,6-dimethylphenylsulfonyl)piperidin-2-yl)methoxy)acetamide]
79.7%	99%	–	–	COc1cc(C)c(S(=O)(=O)N2CCCC2COCC(=O)NCc2ccc(CN(C)C)cc2)c(C)c1 (stereo not drawn) [Example 35, N-(4-dimethylaminomethyl-benzyl)-2-[1-(4-methoxy-2,6-dimethyl-phenylsulfonyl)-pyrrolidin-2-ylmethoxy]-acetamide]
43.7%	40.8%	–	–	CN(C)CCCN1CCN(C(=O)COCC2CCCCN2S(=O)(=O)c2ccc(Cl)c(Cl)c2)CC1 (stereo not drawn) [Example 85, 2-[1-(3,4-dichloro-phenylsulfonyl)-piperidin-2-ylmethoxy]-1-[4-(3-dimethylamino-propyl)-piperazin-1-yl]-ethanone]
85.5%	81.6%	–	–	COc1cc(C)c(S(=O)(=O)N2Cc3ccccc3CC2COCC(=O)N2CCCCC2Cc2cccc(C)n2)c(C)c1C (stereo not drawn) [Example 277, 2-((2-(4-methoxy-2,3,6-trimethylphenylsulfonyl)-1,2,3,4-tetrahydroisoquinolin-3-yl)methoxy)-1-(2-((6-methylpyridin-2-yl)methyl)piperidin-1-yl)ethanone]
104%	100%	–	–	COc1cc(C)c(S(=O)(=O)N2CCCC[C@@H]2COCC(=O)N2CCN(C3CCN(C)CC3)CC2)c(C)c1 [Example 177, (R)-2-((1-(4-methoxy-2,6-dimethylphenylsulfonyl)piperidin-2-yl)methoxy)-1-(4-(1-methylpiperidin-4-yl)piperazin-1-yl)ethanone dihydrochloride]
5.04%	96.2%	–	–	COc1ccc(S(=O)(=O)N2CCCCC2COCC(=O)N2CCN(Cc3cccc(C)c3)CC2)cc1 (stereo not drawn) [Example 219, 2-((1-(4-methoxyphenylsulfonyl)piperidin-2-yl)methoxy)-1-(4-(3-methylbenzyl)piperazin-1-yl)ethanone]
103%	93.5%	–	–	Cc1cccc(CC2CCCCN2C(=O)COCC2CCCCN2S(=O)(=O)c2c(Cl)cccc2Cl)n1 (stereo not drawn) [Example 284, 2-((1-(2,6-dichlorophenylsulfonyl)piperidin-2-yl)methoxy)-1-(2-((6-methylpyridin-2-yl)methyl)piperidin-1-yl)ethanone]
–	–	103.96%	98.36%	2-((1-(2,6-dichlorophenylsulfonyl)piperidin-2-yl)methoxy)-N-(4-(dimethylamino)butyl)acetamide [Example 441]
–	–	103.84%	108.97%	COc1cc(C)c(S(=O)(=O)N2CCCCC2COCC(=O)NCc2ccc(N3CCN(C)CC3)cc2)c(C)c1 (stereo not drawn) [Example 3, 2-[1-(4-methoxy-2,6-dimethyl-phenylsulfonyl)-piperidin-2-ylmethoxy]-N-[4-(4-methyl-piperazin-1-yl)-benzyl]-acetamide]
100%	51.3%	–	–	O=C(COCC1Cc2ccccc2CN1S(=O)(=O)c1ccc(Cl)cc1Cl)Nc1cccc(N2CCOCC2)c1 (stereo not drawn) [Example 265, 2-((2-(2,4-dichlorophenylsulfonyl)-1,2,3,4-tetrahydroisoquinolin-3-yl)methoxy)-N-(3-morpholinophenyl)acetamide]
65.1%	87.9%	–	–	O=C(COCC1Cc2ccccc2CN1S(=O)(=O)c1ccc(Cl)cc1Cl)N1CCCC1CN1CCCCC1 (stereo not drawn) [Example 51, 2-[2-(2,4-dichloro-phenylsulfonyl)-1,2,3,4-tetrahydro-isoquinolin-3-ylmethoxy]-1-(2-piperidin-1-ylmethyl-pyrrolidin-1-yl)-ethanone]
57.1%	102%	–	–	O=C(COCC1CCCCN1S(=O)(=O)c1c(Cl)cc(Cl)cc1Cl)NCCN1CCCC1 (stereo not drawn) [Example 459, N-(2-(pyrrolidin-1-yl)ethyl)-2-((1-(2,4,6-trichlorophenylsulfonyl)piperidin-2-yl)methoxy)acetamide]
68.2%	103%	–	–	COc1cc(C)c(S(=O)(=O)N2CCCC2COCC(=O)NCC(c2ccc(C(F)(F)F)cc2)N2CCCC2)c(C)c1 (stereo not drawn) [Example 496, 2-((1-(4-methoxy-2,6-dimethylphenylsulfonyl)pyrrolidin-2-yl)methoxy)-N-(2-(pyrrolidin-1-yl)-2-(4-(trifluoromethyl)phenyl)ethyl)acetamide]
95.6%	89.9%	–	–	COc1cc(C)c(S(=O)(=O)N2CCCCC2COCC(=O)NCCN2CCN(C)CC2)c(C)c1 (stereo not drawn) [Example 248, 2-((1-(4-methoxy-2,6-dimethylphenylsulfonyl)piperidin-2-yl)methoxy)-N-(2-(4-methylpiperazin-1-yl)ethyl)acetamide]
92.3%	85.3%	–	–	O=C(COCC1CCCCN1S(=O)(=O)c1cccc2ccccc12)N1CCC(N2CCCC2)CC1 (stereo not drawn) [Example 23, 2-((1-(naphthalen-1-ylsulfonyl)piperidin-2-yl)methoxy)-1-(4-(pyrrolidin-1-yl)piperidin-1-yl)ethanone]
43.7%	0%	–	–	COc1ccc(N2CCN(C(=O)COCC3CCCCN3S(=O)(=O)c3ccc(Cl)c(Cl)c3)CC2)cc1 (stereo not drawn) [Example 84, 2-[1-(3,4-dichloro-phenylsulfonyl)-piperidin-2-ylmethoxy]-1-[4-(4-methoxy-phenyl)-piperazin-1-yl]-ethanone]
104%	99.3%	–	–	O=C(COCC1CCCCN1S(=O)(=O)c1c(Cl)cccc1Cl)N1CCC(N2CCCC2)CC1 (stereo not drawn) [Example 443, 2-((1-(2,6-dichlorophenylsulfonyl)piperidin-2-yl)methoxy)-1-(4-(pyrrolidin-1-yl)piperidin-1-yl)ethanone]
101%	99.5%	–	–	COc1cc(C)c(S(=O)(=O)N2CCCCC2COCC(=O)N2CCN(Cc3ccc(C)cc3)CC2)c(C)c1 (stereo not drawn) [Example 385, 2-((1-(4-methoxy-2,6-dimethylphenylsulfonyl)piperidin-2-yl)methoxy)-1-(4-(4-methylbenzyl)piperazin-1-yl)ethanone]
